# Experiments:
# Nestin-CRE transgene [1] = assay: Endogenous BM cell fusion-mediated reprogramming induced by intravitreal BIO in Nestin-Cre mice with BM^R26Y; assay type: in vivo, mouse; settings: 24 h
# Description: BM transplantation was conducted as previously reported with minor modifications. The BM of 4- to 6-week-old R26Y or Nestin-Cre recipient mice was reconstituted with BM cells from the tibias and femurs of RFP/CRE or R26Y transgenic mice respectively. BM cells (1×10^7 cells) were injected intravenously into the recipients 3 hours after irradiation with γ-rays (9 Gy). The eyes of the recipients were protected with lead shields to prevent radiation-induced damage (radiation retinopathy). Four weeks after transplantation, the peripheral blood of chimeric mice was extracted from the tail vein, and the reconstituted BM was assessed.
# For fluoresceine immunostaining, the primary antibodies used were: anti-Nanog (1:200, R&D), anti-Oct4 (1:100, AbCam), anti-Nestin (1:300, Abcam), anti-GATA4 (1:500, Abcam), anti-Otx2 (1:200, Abcam), anti-Noggin (1:200, Abcam), anti-Hand1 (1:400, Abcam), anti-Tuj-1 (1:100, Abcam), anti-Thy1.1 (1:100, Abcam), anti-syntaxin (1:50, Sigma), anti-glutamine synthetase (Sigma, 1:100) anti-Annexin V (1:200, Abcam), anti-Ki67 (Sigma, 1.100) and anti-BrdU (1:300, Sigma). The secondary antibodies used were: anti-mouse IgG and anti-rabbit IgG antibodies conjugated with Alexa Fluor 488, Alexa Fluor 546 or Alexa Fluor 633 (1:1000; Molecular Probes, Invitrogen).
# (§1) The numbers of immunoreactive or of Nanog-GFP- and -YFP-positive cells within three different retinal areas (40× field) were counted in individual sections. A total of ten serial sections were examined for each eye, from at least three different mice. For statistical analysis, the data were expressed as means±SEM, as pooled from at least three independent experiments, each carried out in duplicate. The experiments were performed using at least three different mice. Differences were examined using the unpaired Student t-test.
# Nanog-GFP transgene = assay: In-vivo reprogramming of retinal neurons after fusion, Nanog-GFP-puro mice; design: species or system mouse; settings: for GFP-positive cells after transplantation of pretreated ESCs: ESCs pretreated before transplantation, NMDA-injured eyes
# Description: (§2) Mice at the age of 3 months were anaesthetised by injection of ketamine: metomidine (80 mg/kg: 1.0 mg/kg, intraperitoneal (i.p.)). To induce retinal damage, the animals were treated intravitreally with 2 μl of 20 mM N-methyl-D-aspartate (NMDA) (total 40 nmol; Sigma) for 24 h [Timmers et al., Mol Vis 7, 131-137 (2001)]. Control eyes received 2 μl PBS. For the BrdU incorporation assays, the mice received intraperitoneal (i.p.) BrdU administration of 50 mg/kg body weight.
# (§3) The stem cells (SCs) were left non-treated or were pretreated with 100 ng/ml Wnt3a or 1 μM BIO, for 24 h, and finally 5×10^5 cells were injected intravitreally into the eyes of the anaesthetised mice. The mice were sacrificed by cervical dislocation, and their eyeballs were enucleated for histological analyses.
# (§4) Tissues were fixed by immersion in 4% paraformaldehyde overnight, and then embedded in OCT compound (Tissue-Tek). Horizontal serial sections of 10 μm thickness were processed for immunohistochemistry, and visualisation of Nanog-GFP and Rosa26-YFP fluorescence was performed by fluorescent microscopy.
# (§5) Percentages of GFP and YFP positive cells were evaluated counterstaining the tissue sections with DAPI (Vectashield, Vector Laboratories, Burlingame, Calif., USA), and they were photographed using either an Axioplan microscope (Zeiss) or a Leica laser confocal microscope system.
# as §1
# neural progenitor cells = settings: cited from earlier work; for reprogramming of neural precursor cells after cell fusion: periodic activation of the Wnt/β-catenin pathway in ESCs
# β-catenin signalling = assay: Activation of β-catenin signalling in treated HSPCs (RT-PCR of Axin2, nuclear translocation of β-catenin); assay type: cell-based, mouse
# Excerpt: According to Treatment A, activation of the Wnt/β-catenin signalling pathway is, at least partially, provided by the implanted cells having their Wnt/β-catenin signalling pathway activated and being selected from the group consisting of a hematopoietic stem cell, a progenitor cell, and a mesenchymal stem cell. The subject to be treated may also have activated the Wnt/β-catenin signalling pathway after retinal damage or injury. In general, the Wnt/β-catenin signalling pathway is activated when the target genes are transcribed; by illustrative, activation of the Wnt/β-catenin signalling pathway may be confirmed by conventional techniques, for example, by analyzing the expression of the target genes, e.g., Axin2, by means known by the skilled person in the art to analyze the expression of genes, such as, for example, RT-PCR (reverse transcription-polymerase chain reaction), or by detection of β-catenin translocation in the nuclei of the cells by conventional techniques, such as, for example, by immunostaining, or by detecting the phosphorylation of Dishevelled or the phosphorylation of the LRP tail, etc.
# The stem cells (SCs) were left non-treated or were pretreated with 100 ng/ml Wnt3a or 1 μM BIO, for 24 h, and finally 5×10^5 cells were injected intravitreally into the eyes of the anaesthetised mice. […]
# retinal neurons = assay: Damage-dependent cell fusion in vivo after intravitreal transplantation in R26Y eyes; design: species or system mouse; settings: NMDA-damaged eyes of R26Y mice
# Description: as §2
# Retinal stem and progenitor cells (RSPCs) were isolated from the ciliary margin of adult Cre mice as previously described [Sanges et al., Proc Natl Acad Sci USA 103, 17366-17371 (2006)]. […]
# as §4, §5
# The numbers of immunoreactive or of Nanog-GFP- and -YFP-positive cells within three different retinal areas (40× field) were counted in individual sections. […]
# human GSK-3 = settings: cited from earlier work
# β-catenin = β-catenin immunofluorescence in retinal sections of NMDA-treated eyes; assay type: in vivo, mouse; settings: NMDA-damaged eyes
# Description: FIG. 12. Analysis of reprogramming of retinal neurons after fusion. (A) Immunofluorescence staining using an anti β-catenin antibody (red) was performed on sections from eyes treated either with NMDA, with both NMDA and DKK1 or untreated as control. The expression and nuclear accumulation of β-catenin in retinal cells detected in NMDA-damaged eyes (red arrows) is reduced after treatment with DKK1. Scale bar: 20 μm. (B) Schematic representation of in-vivo reprogramming experimental plan. Red-labelled SPCs either non-treated (control), or treated for 24 h with BIO were injected in NMDA-damaged or undamaged eyes of Nanog-GFP-Puro recipient mice. The expression of GFP in reprogrammed hybrids was analysed one day after injection. […] Nuclei were counterstained with DAPI.
# To assess the role of activation of the endogenous Wnt/β-catenin signalling pathway in the reprogramming of retinal neurons, in both of these mouse models, DKK1 was also injected immediately after NMDA injection; DKK1 is an inhibitor of the Wnt/β-catenin pathway [Osakada et al. (2007) cited supra, FIG. 12A]. HSPCs were transplanted after 24 h, and mice were sacrificed 24 h later.
# Nestin-CRE transgene [2] = assay: In-vivo reprogramming of retinal neurons after fusion, Nestin-CRE mice; design: species or system mouse; settings: injected immediately after NMDA, HSPCs after 24 h
# Description: as §2, §3, §4
# Percentages of GFP and YFP positive cells were evaluated counterstaining the tissue sections with DAPI (Vectashield, Vector Laboratories, Burlingame, Calif., USA), and they were photographed using either an Axioplan microscope (Zeiss) or a Leica laser confocal microscope system. […]
molecule,measurement,setting,value
"O=C1Nc2cc(Br)ccc2/C1=C1/Nc2ccccc2/C1=N\O [BIO, 6-bromoindirubin-3'-oxime]",YFP-positive hybrids Annexin-V positive,Nestin-CRE transgene [1]; NMDA+BIO intravitreal,1%
same,YFP-positive hybrids positive for Ki67,Nestin-CRE transgene [1]; NMDA+BIO intravitreal,About 8%
same,YFP-positive hybrids positive for Nanog,Nestin-CRE transgene [1]; NMDA+BIO intravitreal,70%
same,YFP-positive hybrids positive for Oct4,Nestin-CRE transgene [1]; NMDA+BIO intravitreal,50%
same,YFP-positive cells in the gcl and inl,Nestin-CRE transgene [1]; intravitreal with NMDA,observed
same,GFP-positive cells after transplantation of pretreated ESCs,Nanog-GFP transgene,strikingly increased
same,fusion efficiency of ESCs with neural progenitor cells,neural progenitor cells; in vitro,does not increase the fusion efficiency
same,reprogramming of neural precursor cells after cell fusion,neural progenitor cells,strongly enhances
same,β-catenin signalling in HSPCs,β-catenin signalling,activates β-catenin signalling
same,"effect of pre-treatment on fusion efficiency of HSPCs, ESCs or RSPCs",retinal neurons,did not enhance the fusion efficiency
"Nc1nc(NCCNc2ncc(-n3ccnc3)c(-c3ccc(Cl)cc3Cl)n2)ccc1[N+](=O)[O-] [CHIR 98014, 6-pyridinediamine, N6-[2-[[4-(2,4-dichlorophenyl)-5-(1H-imidazol-1-yl)-2-pyrimidinyl]amino]ethyl]-3-nitro-]",inhibition of human GSK-3,human GSK-3,potently
"Cc1c[nH]c(-c2cnc(NCCNc3ccc(C#N)cn3)nc2-c2ccc(Cl)cc2Cl)n1 [CHIR 99021, 6-{2-[4-(2,4-dichloro-phenyl)-5-(4-methyl-1H-imidazol-2-yl)-pyrimidin-2-ylamino]-ethylamino}-nicotinonitrile]",inhibition of human GSK-3,human GSK-3,potently
"DKK1: an inhibitor of the Wnt/β-catenin pathway (protein, UniProt O94907 32-266, looked up) Dickkopf-related protein 1: TLNSVLNSNAIKNLPPPLGGAAGHPGSAVSAAPGILYPGGNKYQTIDNYQPYPCAEDEECGTDEYCASPTRGGDAGVQICLACRKRRKRCMRHAMCCPGNYCKNGICVSSDQNHFRGEIEETITESFGNDHSTLDGYSRRTTLSSKMYHTKGQEGSVCLRSSDCASGLCCARHFWSKICKPVLKEGQVCTKHRRKGSHGLEIFQRCYCGEGLSCRIQKDHHQASNSSRLHTCQRH",reprogramming of neuron-HSPC hybrids,"Nanog-GFP transgene; injected immediately after NMDA, HSPCs after 24 h, Nanog-GFP-puro mice",almost completely blocked
same,expression and nuclear accumulation of β-catenin in retinal cells,β-catenin,reduced
same,reprogramming of neuron-HSPC hybrids,Nestin-CRE transgene [2],almost completely blocked
"Wnt3a: Wnt protein isoform, Wnt/β-catenin signalling pathway activator (protein, UniProt P56704 19-352, looked up) Protein Wnt-3a: SYPIWWSLAVGPQYSSLGSQPILCASIPGLVPKQLRFCRNYVEIMPSVAEGIKIGIQECQHQFRGRRWNCTTVHDSLAIFGPVLDKATRESAFVHAIASAGVAFAVTRSCAEGTAAICGCSSRHQGSPGKGWKWGGCSEDIEFGGMVSREFADARENRPDARSAMNRHNNEAGRQAIASHMHLKCKCHGLSGSCEVKTCWWSQPDFRAIGDFLKDKYDSASEMVVEKHRESRGWVETLRPRYTYFKVPTERDLVYYEASPNFCEPNPETGSFGTRDRTCNVSSHGIDGCDLLCCGRGHNARAERRREKCRCVFHWCCYVSCQECTRVYDVHTCK",GFP-positive cells after transplantation of pretreated ESCs,Nanog-GFP transgene,strikingly increased
same,reprogramming of neural precursor cells after cell fusion,neural progenitor cells,strongly enhances

# Source: patent US20140199277A1, “Methods of Treatment of Retinal Degeneration Diseases” (priority 2011, published 2014)
